Results reported in patent publication US20230116972A1, “CD38 MODULATORS AND METHODS OF USE THEREOF” (Cytokinetics, Inc., priority 2021, published 2023).
Read-outs that look alike come from different tables or passages of the source.

What was measured:
Assay in all cases: direct inhibition of CYP450 in human liver microsomes
Format in all cases: in vitro ADME
CYP2B6 = target: T1, CYP2B6 (Homo sapiens, UniProt P20813); settings: for activity at 3 µM / activity at 10 µM / activity at 50 µM: % of non-inhibited control, read-out: CYP2B6 T0 % activity; for IC50: estimated from 3, 10, 50 uM, read-out: CYP2B6 T0 estimated IC50
T1 construct: from tissue; host or cells: human liver microsomes (pooled in the time-dependent assay)
T1 sequence (P20813 1-491): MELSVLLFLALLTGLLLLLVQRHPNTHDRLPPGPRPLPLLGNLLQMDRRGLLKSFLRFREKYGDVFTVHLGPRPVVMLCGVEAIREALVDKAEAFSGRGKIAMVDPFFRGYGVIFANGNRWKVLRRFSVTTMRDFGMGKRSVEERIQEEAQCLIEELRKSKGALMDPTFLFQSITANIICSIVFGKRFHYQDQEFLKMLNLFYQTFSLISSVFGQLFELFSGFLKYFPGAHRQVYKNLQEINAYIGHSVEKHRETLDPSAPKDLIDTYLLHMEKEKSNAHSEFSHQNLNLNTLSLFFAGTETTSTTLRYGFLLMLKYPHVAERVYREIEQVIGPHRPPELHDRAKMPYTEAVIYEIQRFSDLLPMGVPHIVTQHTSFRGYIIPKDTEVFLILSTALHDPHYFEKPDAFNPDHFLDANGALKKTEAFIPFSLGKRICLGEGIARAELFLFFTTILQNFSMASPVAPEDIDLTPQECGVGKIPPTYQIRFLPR
Protocol: (§1) Direct inhibition: […] A Perspective of the Pharmaceutical Research and Manufacturers of America”, Drug Metabolism and Disposition, 37 (7): 1355, 2009). For 3A4, the % activity was measured using both midazolam and testosterone as probes. Each compound at 3, 10, and 50 μM was incubated with HLM, NADPH and CYP isoenzyme specific probe substrates at 37° C. Inhibition of the probe substrate metabolism was quantified using LC/MS/MS. […] Known chemical inhibitors specific for the individual CYP isoenzymes were evaluated in parallel as positive controls and these compounds produced CYP inhibition consistent with published results (Walsky & Obach RS. “Validated assays for human cytochrome P450 activities”. Drug Metab Dispos. 32(6):647-60, 2004). Note that, in Tables 6 and 7, the “Compound No” corresponds to the compound numbers in Table 1.

CYP1A2 = target: T2, CYP1A2 (Homo sapiens, UniProt P05177)
T2 construct: from tissue; host or cells: human liver microsomes (pooled in the time-dependent assay)
T2 sequence (P05177 1-516): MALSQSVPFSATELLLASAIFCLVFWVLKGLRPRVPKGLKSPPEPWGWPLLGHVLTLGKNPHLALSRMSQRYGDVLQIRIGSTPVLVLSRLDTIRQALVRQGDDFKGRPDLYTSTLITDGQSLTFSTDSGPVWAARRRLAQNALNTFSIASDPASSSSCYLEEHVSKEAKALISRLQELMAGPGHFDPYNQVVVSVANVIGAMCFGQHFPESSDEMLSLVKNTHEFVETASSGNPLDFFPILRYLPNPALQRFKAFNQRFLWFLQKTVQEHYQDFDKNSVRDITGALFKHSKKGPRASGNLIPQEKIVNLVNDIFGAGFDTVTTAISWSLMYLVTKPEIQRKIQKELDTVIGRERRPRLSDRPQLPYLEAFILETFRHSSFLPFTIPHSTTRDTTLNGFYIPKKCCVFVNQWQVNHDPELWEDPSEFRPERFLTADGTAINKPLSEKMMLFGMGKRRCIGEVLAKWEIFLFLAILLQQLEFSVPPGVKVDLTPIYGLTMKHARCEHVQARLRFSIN
Protocol: as §1

CYP2C9 = target: T3, CYP2C9 (Homo sapiens, UniProt P11712); settings: for activity at 3 µM / activity at 10 µM / activity at 50 µM: % of non-inhibited control, read-out: CYP2C9 T0 % activity; for IC50: estimated from 3, 10, 50 uM, read-out: CYP2C9 T0 estimated IC50
T3 construct: from tissue; host or cells: human liver microsomes (pooled in the time-dependent assay)
Protocol: as §1

CYP2C19 = target: T4, CYP2C19 (Homo sapiens, UniProt P33261); settings: for activity at 3 µM / activity at 10 µM / activity at 50 µM: % of non-inhibited control, read-out: CYP2C19 T0 % activity; for IC50: estimated from 3, 10, 50 uM, read-out: CYP2C19 T0 estimated IC50
T4 construct: from tissue; host or cells: human liver microsomes (pooled in the time-dependent assay)
Protocol: as §1

CYP2D6 = target: T5, CYP2D6 (Homo sapiens, UniProt P10635); settings: for activity at 3 µM / activity at 10 µM / activity at 50 µM: % of non-inhibited control, read-out: CYP2D6 T0 % activity; for IC50: estimated from 3, 10, 50 uM, read-out: CYP2D6 T0 estimated IC50
T5 construct: from tissue; host or cells: human liver microsomes (pooled in the time-dependent assay)
Protocol: as §1

[1] = 3 uM, human liver microsomes, % of non-inhibited control, read-out: CYP1A2 T0 % activity
[2] = 10 uM, human liver microsomes, % of non-inhibited control, read-out: CYP1A2 T0 % activity
[3] = 50 uM, human liver microsomes, % of non-inhibited control, read-out: CYP1A2 T0 % activity
[4] = human liver microsomes, estimated from 3, 10, 50 uM, read-out: CYP1A2 T0 estimated IC50

T5 sequence (P10635 whole entry): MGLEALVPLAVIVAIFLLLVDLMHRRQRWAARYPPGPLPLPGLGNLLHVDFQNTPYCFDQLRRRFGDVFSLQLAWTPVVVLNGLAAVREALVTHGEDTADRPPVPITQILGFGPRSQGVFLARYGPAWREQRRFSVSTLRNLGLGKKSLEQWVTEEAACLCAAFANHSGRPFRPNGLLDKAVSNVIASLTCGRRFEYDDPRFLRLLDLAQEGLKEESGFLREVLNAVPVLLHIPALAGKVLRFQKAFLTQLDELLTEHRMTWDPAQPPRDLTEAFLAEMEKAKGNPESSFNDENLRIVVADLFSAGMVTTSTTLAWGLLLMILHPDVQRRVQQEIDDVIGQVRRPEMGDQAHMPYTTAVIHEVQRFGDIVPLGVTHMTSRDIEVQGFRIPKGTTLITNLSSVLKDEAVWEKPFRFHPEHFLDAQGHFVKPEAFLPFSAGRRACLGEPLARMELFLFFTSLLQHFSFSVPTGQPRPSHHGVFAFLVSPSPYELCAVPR
T3 sequence (P11712 whole entry): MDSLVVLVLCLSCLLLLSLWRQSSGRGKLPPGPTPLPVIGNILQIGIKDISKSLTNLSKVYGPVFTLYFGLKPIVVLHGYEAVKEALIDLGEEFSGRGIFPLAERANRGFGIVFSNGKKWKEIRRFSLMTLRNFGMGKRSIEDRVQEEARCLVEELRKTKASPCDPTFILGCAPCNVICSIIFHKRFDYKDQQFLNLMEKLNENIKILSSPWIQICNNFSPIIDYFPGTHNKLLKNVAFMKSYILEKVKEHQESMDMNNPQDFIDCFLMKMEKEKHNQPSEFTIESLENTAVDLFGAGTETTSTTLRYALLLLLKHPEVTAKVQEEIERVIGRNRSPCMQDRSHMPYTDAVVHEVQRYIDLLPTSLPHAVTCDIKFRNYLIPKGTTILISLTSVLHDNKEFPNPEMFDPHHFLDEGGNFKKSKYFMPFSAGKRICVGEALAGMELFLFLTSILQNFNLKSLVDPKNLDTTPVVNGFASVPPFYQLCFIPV
T4 sequence (P33261 whole entry): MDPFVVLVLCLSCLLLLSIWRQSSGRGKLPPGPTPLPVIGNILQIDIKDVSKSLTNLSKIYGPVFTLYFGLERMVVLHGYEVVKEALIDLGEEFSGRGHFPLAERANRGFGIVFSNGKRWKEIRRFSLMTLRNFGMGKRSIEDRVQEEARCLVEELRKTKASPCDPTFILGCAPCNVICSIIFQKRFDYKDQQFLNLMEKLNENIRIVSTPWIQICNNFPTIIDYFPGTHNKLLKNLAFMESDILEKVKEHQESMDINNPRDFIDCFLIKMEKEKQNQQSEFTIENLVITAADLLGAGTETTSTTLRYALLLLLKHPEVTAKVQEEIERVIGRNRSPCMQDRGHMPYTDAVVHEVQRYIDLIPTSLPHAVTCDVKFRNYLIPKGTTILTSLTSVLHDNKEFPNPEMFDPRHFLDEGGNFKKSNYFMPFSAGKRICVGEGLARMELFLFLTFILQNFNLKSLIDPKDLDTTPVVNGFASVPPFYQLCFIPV

Structure (SMILES)	activity at 3 µM (CYP2B6)	activity at 10 µM (CYP2B6)	activity at 50 µM (CYP2B6)	IC50 (CYP2B6)	activity at 3 µM (CYP1A2; [1])	activity at 10 µM (CYP1A2; [2])	activity at 50 µM (CYP1A2; [3])	IC50 (CYP1A2; [4])	activity at 3 µM (CYP2C9)	activity at 10 µM (CYP2C9)	activity at 50 µM (CYP2C9)	IC50 (CYP2C9)	activity at 3 µM (CYP2C19)	activity at 10 µM (CYP2C19)	activity at 50 µM (CYP2C19)	IC50 (CYP2C19)	activity at 3 µM (CYP2D6)	activity at 10 µM (CYP2D6)	activity at 50 µM (CYP2D6)	IC50 (CYP2D6)	also measured
CO[C@H]1CC[C@H](NC(=O)c2cc(C3CCOCC3)nc(-c3cncn3C)n2)CC1 [Compound 199, N-((1r,4r)-4-methoxycyclohexyl)-2-(1-methyl-1H-imidazol-5-yl)-6-(tetrahydro-2H-pyran-4-yl)pyrimidine-4-carboxamide]	95%	80%	53%	> 50 µM	96%	96%	85%	> 50 µM	101%	96%	69%	> 50 µM	92%	85%	39%	< 50 µM	–	–	–	–	–
CC(C)(O)c1ccc(NC(=O)c2nccc(-n3ccnc3)n2)cn1 [Compound 249, N-(6-(2-hydroxypropan-2-yl)pyridin-3-yl)-4-(1H-imidazol-1-yl)pyrimidine-2-carboxamide]	98%	98%	92%	> 50 µM	–	–	–	–	106%	103%	92%	> 50 µM	95%	96%	74%	> 50 µM	104%	103%	87%	> 50 µM	IC50 (CYP1A2): > 50 µM; activity at 3 µM (CYP1A2; human, microsomes): 99%; activity at 10 µM (CYP1A2; human, microsomes): 93%; activity at 50 µM (CYP1A2; human, microsomes): 81%
Cn1cncc1-c1ccnc(C(=O)Nc2ccc(C(C)(C)O)nc2)n1 [Compound 250, N-(6-(2-hydroxypropan-2-yl)pyridin-3-yl)-4-(1-methyl-1H-imidazol-5-yl)pyrimidine-2-carboxamide]	101%	99%	89%	> 50 µM	–	–	–	–	99%	94%	89%	> 50 µM	88%	88%	66%	> 50 µM	103%	86%	47%	< 50 µM	IC50 (CYP1A2): < 50 µM; activity at 3 µM (CYP1A2; human, microsomes): 88%; activity at 10 µM (CYP1A2; human, microsomes): 69%; activity at 50 µM (CYP1A2; human, microsomes): 34%
Cn1cncc1-c1ccnc(C(=O)N[C@H]2CC[C@H](O)CC2)n1 [Compound 256, N-((1r,4r)-4-hydroxycyclohexyl)-4-(1-methyl-1H-imidazol-5-yl)pyrimidine-2-carboxamide]	103%	101%	91%	> 50 µM	94%	92%	78%	> 50 µM	90%	94%	86%	> 50 µM	97%	96%	88%	> 50 µM	89%	87%	56%	> 50 µM	–
CO[C@H]1CC[C@H](NC(=O)c2cc(C3CCC(F)(F)CC3)nc(-c3cncn3C)n2)CC1 [Compound 289, 6-(4,4-difluorocyclohexyl)-N-((1r,4r)-4-methoxycyclohexyl)-2-(1-methyl-1H-imidazol-5-yl)pyrimidine-4-carboxamide]	98%	95%	79%	> 50 µM	100%	95%	81%	> 50 µM	96%	81%	49%	< 50 µM	83%	63%	23%	< 50 µM	98%	98%	64%	> 50 µM	–
CO[C@H]1CC[C@H](NC(=O)c2cc(C3(C)COC3)nc(-c3cncn3C)n2)CC1 [Compound 295, N-((1r,4r)-4-methoxycyclohexyl)-2-(1-methyl-1H-imidazol-5-yl)-6-(3-methyloxetan-3-yl)pyrimidine-4-carboxamide]	96%	91%	79%	> 50 µM	101%	98%	97%	> 50 µM	91%	85%	63%	> 50 µM	108%	100%	79%	> 50 µM	95%	79%	36%	< 50 µM	–
